Results: ChEMBL document CHEMBL6087462, “Cuminaldehyde Potentiates Antiproteolytic Peptide Efficacy via Parallel Pathways of Enhanced Inner Membrane-Damaging Activity and Inhibition of Bacterial Energy Metabolism” (J Med Chem, 2025)

Experiments:
RAW264.7 = assay: Cytotoxicity against mouse RAW264.7 cells assessed as cell death incubated for 4 hrs by MTT assay; assay type: toxicity, cell-based; conditions: raw264.7, 4 h
HEK-293T = assay: Cytotoxicity against human HEK293T cells assessed as cell death incubated for 4 hrs by MTT assay; assay type: toxicity, cell-based
[1] = Cytotoxicity against porcine IPEC-J2 cells assessed as cell death incubated for 4 hrs by MTT assay; assay type: toxicity, cell-based, Sus scrofa; conditions: pig, ipec-j2, 4 h
[2] = Acute toxicity in C57BL/6 mouse assessed as lethal dose measured for 5 days; conditions: in vivo, time 5 day
[3] = Acute toxicity in C57BL/6 mouse assessed as animal survival at 80 mg/kg, po measured for 5 days; assay type: organism-based; conditions: in vivo, 120 h, time 5 day
[4] = Acute toxicity in C57BL/6 mouse assessed as animal survival at 40 mg/kg, po measured for 5 days; assay type: organism-based; conditions: in vivo, 120 h, time 5 day
[5] = Acute toxicity in C57BL/6 mouse assessed as ruffled fur at 80 mg/kg, po measured for 5 days; assay type: organism-based; conditions: in vivo, 120 h, time 5 day
[6] = Subacute toxicity in C57BL/6 mouse assessed as reduction in body weight loss at 125 mg/kg, po administered for 3 days; assay type: organism-based; conditions: in vivo, 72 h, time 3 day
[7] = Subacute toxicity in C57BL/6 mouse assessed as change in liver weight at 125 mg/kg, po administered for 3 days; assay type: organism-based; conditions: in vivo, 72 h, time 3 day
[8] = Subacute toxicity in C57BL/6 mouse assessed as change in kidney weight at 125 mg/kg, po administered for 3 days; assay type: organism-based; conditions: in vivo, 72 h, time 3 day
[9] = Subacute toxicity in C57BL/6 mouse assessed as change in spleen weight at 125 mg/kg, po administered for 3 days; assay type: organism-based; conditions: in vivo, 72 h, time 3 day
[10] = Subacute toxicity in C57BL/6 mouse assessed as change in BUN level at 125 mg/kg, po administered for 3 days; assay type: organism-based; conditions: in vivo, 72 h, time 3 day
[11] = Subacute toxicity in C57BL/6 mouse assessed as change in CREA level at 125 mg/kg, po administered for 3 days; assay type: organism-based; conditions: in vivo, 72 h, time 3 day
[12] = Subacute toxicity in C57BL/6 mouse assessed as change in ALT level at 125 mg/kg, po administered for 3 days; assay type: organism-based; conditions: in vivo, 72 h, time 3 day

## CC[C@H](C)[C@H](NC(=O)[C@@H](NC(=O)[C@@H](CCCNC(=N)N)NC(=O)[C@H](C)NC(=O)[C@H](C)NC(=O)[C@@H](N)Cc1cccc2ccccc12)[C@@H](C)CC)C(=O)N[C@@H](CC(C)C)C(=O)N[C@H](CCCNC(=N)N)C(=O)N[C@@H](Cc1c[nH]c2ccccc12)C(=O)N[C@H](CCCNC(=N)N)C(=O)N[C@@H](Cc1ccccc1)C(=O)N[C@@H](CCCNC(=N)N)C(=O)O
RAW264.7
  Activity: < 50%
HEK-293T
  Activity: < 50%
[1]
  Activity: < 50%
[2]
  LD50 at 120 h: 1010 mg/kg
[3]
  Activity: Non-toxic
[4]
  Activity: Non-toxic
[5]
  Activity: Non-toxic
[6]
  Activity: Non-toxic
[7]
  Activity: Non-toxic
[8]
  Activity: Non-toxic
[9]
  Activity: Non-toxic
[10]
  Activity: Non-toxic
[11]
  Activity: Non-toxic
[12]
  Activity: Non-toxic
